The values that follow come from PMC6270165, “Synthesis and Biological Evaluation of 3-Benzisoxazolyl-4-indolylmaleimides as Potent, Selective Inhibitors of Glycogen Synthase Kinase-3β” (Molecules, 2013).

One experiment addresses T1, GSK-3β (Homo sapiens, UniProt P49841).
T1 construct: GST (N, cleaved yes); made in house; host or cells: Escherichia coli BL21-Codon Plus (DE3)
Description: GSK-3β kinase assay (Z'-LYTE Kinase Assay kit Ser/Thr 9 Peptide). In kind it is biochemical. As to the method: (§1) GSK3β belongs to CMGC family. Here, the other family members were used to evaluate the selectivity of GSK3β inhibitors, including PKC-epsilon (AGC family), JAK2 (TK family), Braf (TKL family), DRAK2 (CAMK family) and IKKβ (other family).The recombinant GST-GSK-3βprotein was expressed in Escherichia coli strain BL21-Codon Plus (DE3), purified by GSTrap affinity chromatography, and cleaved by thrombin. The GSK-3β kinase assay was carried out with the Z´-LYTETM Kinase Assay kit Ser/Thr 9 Peptide substrate (Invitrogen, Grand, NY, USA) in 10 μL reaction volume containing 50 nM enzyme, 30 μM ATP and 2 μM substrate peptide. Drak2 Proteins were presented by professor Jiang-ping Wu (Laboratory of Immunology, Research Centre, CHUM, Notre Dame Hospital, Pavilion DeSève). The Drak2 kinase reaction was performed in a final assay volume of 3.4 μL using the ADP-GLO Kinase Assay Kit (Promega, Madison, WI, USA), according the ADP-GLO protocol and read on an EnVision plate reader. The recombinant PKC-epsilon, IKKβ, and JAK2 with N-terminal His-tag were expressed using baculovirus expression system and purified with Ni-Beads. BRAF protein was from Carna Biosciences, Inc. (Kobe Port Island, Japan). And the related kinase reactions were performed in a final assay volume of 10 μL using the related HTRF Assay Kit (Cisbio, Codolet, France). Reactions were according the HTRF protocol and read on an EnVision plate reader. All reactions were carried out in triplicate. […] Data were expressed as mean ± SE.

The target of another experiment is T2, PKC-epsilon (Homo sapiens, UniProt Q02156).
T2 construct: His-tag (N); made in house
T2 sequence (Q02156 1-737): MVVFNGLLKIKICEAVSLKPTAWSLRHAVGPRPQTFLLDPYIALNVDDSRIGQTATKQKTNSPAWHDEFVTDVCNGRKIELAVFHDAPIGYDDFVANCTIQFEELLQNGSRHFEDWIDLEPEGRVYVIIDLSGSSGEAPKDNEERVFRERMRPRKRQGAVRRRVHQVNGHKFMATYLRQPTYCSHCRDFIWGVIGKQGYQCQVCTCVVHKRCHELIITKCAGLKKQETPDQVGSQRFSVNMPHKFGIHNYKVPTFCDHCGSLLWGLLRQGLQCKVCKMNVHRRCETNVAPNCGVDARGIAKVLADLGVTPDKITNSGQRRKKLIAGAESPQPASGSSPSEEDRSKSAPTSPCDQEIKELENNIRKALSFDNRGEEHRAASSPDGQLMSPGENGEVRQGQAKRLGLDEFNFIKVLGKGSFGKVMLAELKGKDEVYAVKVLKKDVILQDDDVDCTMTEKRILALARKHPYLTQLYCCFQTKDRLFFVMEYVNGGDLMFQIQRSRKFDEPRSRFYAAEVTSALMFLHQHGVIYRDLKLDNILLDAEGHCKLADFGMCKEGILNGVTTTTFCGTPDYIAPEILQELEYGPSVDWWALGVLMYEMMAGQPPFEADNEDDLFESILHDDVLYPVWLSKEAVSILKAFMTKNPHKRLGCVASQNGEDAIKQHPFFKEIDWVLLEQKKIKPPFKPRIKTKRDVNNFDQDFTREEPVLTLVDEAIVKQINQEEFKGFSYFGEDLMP
Description: PKC-epsilon kinase assay (HTRF). In kind it is biochemical. The note with it: read-out: PKC-epsilon inhibition% at 0.8 μg/mL (~2 μM). As to the method: as §1
A general note: TR-FRET usually uses a lanthanide donor and a delayed reading to cut background.

Another experiment has as its target T3, JAK2 (Homo sapiens, UniProt O60674).
T3 construct: His-tag (N); made in house
Description: JAK2 kinase assay (HTRF). Conditions: read-out: JAK2 inhibition% at 0.8 μg/mL (~2 μM). The format is biochemical. As to the method: as §1

Experiment [1] relates to Tau phosphorylation at Ser 396 in SH-SY5Y cells. Description: Aβ25-35-induced Tau phosphorylation (Ser396) in SH-SY5Y cells, Western blotting. The format is cell-based, human. The note with it: 100 nM, inhibitors 1 hour, then Aβ25–35 6 hours, Western blot. As to the method:
It has been implicated that GSK-3β is involved in multiple cellular processes, and its ability to hyperphosphorylate Tau protein and induce neurofibrillary tangle was intensively studied. Therefore, the cell-based assay examining Tau phosphorylation at Serine 396 represents a direct functional assay to measure the cellular activity of GSK-3β inhibitors. Compounds 7c, 7f, 7j–l and 7o–q were tested for the ability to reduce Tau phosphorylation at Ser 396 in human neuroblastoma SH-SY5Y cells. LiCl, a well-known inhibitor of GSK-3β [24], was used as a positive control in this assay. […] The Aβ-induced Tau hyperphosphorylation results in neurofibrillary tangle formation, which plays an important role in Alzheimer’s disease. […] In addition, the predictions about these compounds’ brain permeability were performed using ADME module with Discovery Studio 2.1 software package.
SH-SY5Y human neuroblastoma cells were obtained from the American Type Culture Collection (ATCC, Manassas, VA, USA). Cells were cultured in 1:1 DMEM:Ham's F12 containing 10% (v/v) fetal bovine serum (HyClone, Logan, UT, USA), 1% penicillin, and 1% streptomycin at a humidified atmosphere with 5% CO2. The medium was changed every 2 days. […] Antigen-antibody complexes were detected by the ECL Kit.
On the technique in general: A western blot detects proteins with antibodies after separation by electrophoresis.

T1 sequence (P49841 whole entry): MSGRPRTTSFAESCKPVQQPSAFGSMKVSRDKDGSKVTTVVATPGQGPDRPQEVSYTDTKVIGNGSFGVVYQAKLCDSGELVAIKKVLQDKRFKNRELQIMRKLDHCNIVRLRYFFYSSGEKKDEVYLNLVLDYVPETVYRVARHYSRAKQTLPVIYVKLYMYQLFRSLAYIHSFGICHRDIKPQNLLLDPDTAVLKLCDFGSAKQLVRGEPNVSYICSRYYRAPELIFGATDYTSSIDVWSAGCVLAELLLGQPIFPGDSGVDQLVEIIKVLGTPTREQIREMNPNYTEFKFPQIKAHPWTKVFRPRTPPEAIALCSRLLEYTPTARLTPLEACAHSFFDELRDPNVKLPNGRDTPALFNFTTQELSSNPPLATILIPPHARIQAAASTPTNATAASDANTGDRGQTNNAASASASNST
T3 sequence (O60674 whole entry): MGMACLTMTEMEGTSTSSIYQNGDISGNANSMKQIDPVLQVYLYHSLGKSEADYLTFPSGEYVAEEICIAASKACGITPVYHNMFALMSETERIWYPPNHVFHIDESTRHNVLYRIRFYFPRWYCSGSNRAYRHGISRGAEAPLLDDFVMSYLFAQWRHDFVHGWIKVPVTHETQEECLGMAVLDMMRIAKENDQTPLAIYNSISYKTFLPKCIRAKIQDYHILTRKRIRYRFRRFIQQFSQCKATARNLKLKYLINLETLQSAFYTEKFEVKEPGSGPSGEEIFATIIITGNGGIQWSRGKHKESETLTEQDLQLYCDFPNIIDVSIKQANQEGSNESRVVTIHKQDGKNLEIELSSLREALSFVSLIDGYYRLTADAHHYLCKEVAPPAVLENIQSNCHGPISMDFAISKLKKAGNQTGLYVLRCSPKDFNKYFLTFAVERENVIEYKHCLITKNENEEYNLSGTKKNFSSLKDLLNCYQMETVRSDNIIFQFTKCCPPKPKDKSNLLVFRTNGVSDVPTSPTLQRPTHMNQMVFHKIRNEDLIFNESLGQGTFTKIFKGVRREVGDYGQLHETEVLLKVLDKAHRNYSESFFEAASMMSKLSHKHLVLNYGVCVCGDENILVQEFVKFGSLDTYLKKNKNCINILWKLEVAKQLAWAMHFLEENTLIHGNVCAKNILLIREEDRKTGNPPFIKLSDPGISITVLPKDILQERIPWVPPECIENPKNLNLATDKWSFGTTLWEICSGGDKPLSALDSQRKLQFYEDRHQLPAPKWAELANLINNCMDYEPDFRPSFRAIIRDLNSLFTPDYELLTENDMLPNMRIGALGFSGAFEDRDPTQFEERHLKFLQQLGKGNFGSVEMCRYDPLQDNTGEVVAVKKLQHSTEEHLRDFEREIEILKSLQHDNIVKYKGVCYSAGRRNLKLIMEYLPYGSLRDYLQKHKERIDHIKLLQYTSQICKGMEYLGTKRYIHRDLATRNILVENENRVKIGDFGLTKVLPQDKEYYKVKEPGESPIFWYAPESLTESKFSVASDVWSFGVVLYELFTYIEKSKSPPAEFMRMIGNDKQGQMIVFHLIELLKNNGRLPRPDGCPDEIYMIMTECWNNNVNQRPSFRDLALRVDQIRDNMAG

Regarding `O=C1NC(=O)C(c2cn(CCCN3CCOCC3)c3ccc(Br)cc23)=C1c1noc2ccccc12` [7c, 3-(Benzo[d]isoxazol-3-yl)-4-(5-bromo-1-(3-morpholinopropyl)-1H-indol-3-yl)-1H-pyrrole-2,5-dione], the IC50 – broadly, the concentration needed to halve the response being measured – at GSK-3β (50 nM enzyme, 30 μM ATP, 2 μM substrate peptide, triplicate, mean ± SE, read-out: GSK-3β inhibitory activity IC50 (nM) ± SE) came to 10.2 ± 5.9 nM. Also, the “GSK-3β inhibitory activity, fold increase as compared to 7h” value on GSK-3β (ratio of IC50 values, versus 7h) came to 14 fold. Besides, the “Selectivity for GSK-3β over other tested kinases” value at GSK-3β (versus PKC-epsilon, JAK2, BRAF, IKK2 and Drak2) is “high selectivity”. The figures for the inhibition at 2 µM on PKC-epsilon and at JAK2 were 12.1% and 0.1%, respectively. Moreover, the “Effect on Aβ25-35-induced Tau phosphorylation at Ser 396” value in experiment [1] is given as “obviously reduce”.
